This is an account of results in patent publication US7799758B2, “Peptides and peptide derivatives as well as pharmaceutical compositions containing the same” (priority 2006, dated 2010).

No end group written: not given here.

The assay deals with mouse-adapted Dengue virus (DEN-2, strain P23085). Put plainly: model of Dengue virus infection in mice. In kind it is in vivo. Particulars: BALB/c mice infected s.c. with DEN-2 at 1-2 LD50, 4.8 mg/kg/day i.m. once a day for 5 days from day 3, read at day 10, p < 0.05. How it is done: A further possibility for establishing the biological effect in vivo is the reduction or complete suppression of mortality because of an infection with haemolytic viruses or bacteria. For this purpose, mice are, as described in Example 8, for instance infected with a dose of Dengue viruses, wherein 50% of the animals die within a period of 5-20 days after infection. The inventive compounds bring about a reduction of this mortality at a dose ranging from 0.001 to 500 mg/kg body weight, preferably at a dose ranging from […] body weight.
The biological effect of the compound of Example 3 was established in a model of Dengue virus infection in mice. 5-week-old male BALB/c mice were divided into 2 groups. All animals were infected subcutaneously with a mouse-adapted Dengue virus (DEN-2, strain P23085 at a dose of 1-2 LD50. 15 mice received 0.1 ml of 0.8% saline as intramuscular injection (control). The treated animals received 4.8 mg/kg/day of the agent of Example 3 as an intramuscular injection (diluted in 0.1 ml of 0.8% saline) once a day for 5 days, starting on day 3 after the virus infection.
At the end of the treatment period (day 10) the survival rates were compared.

Consider “Gly-His-Arg-Pro-Leu-Asp-Lys-Lys-Arg-Glu-Glu-Ala-Pro-Ser-Leu-Arg-Pro-Ala-Pro-Pro-Pro-Ile-Ser-Gly-Gly-Gly-Tyr-Arg-Cys-(S-succinimido-PEG20K)-amide (GHRPLDKKREEAPSLRPAPPPISGGGYRC(succinimido‑PEG20K)-NH2) [Example 3]”, for which the “Mortality Percentage” value is recorded as 0%. For the same substance, for the setting “dead/total animals”, the Mortality is 0/10.
